Laboratory results as given in paper PMC2900928 (Cell, 2010).

How the values were obtained:
BT1765 = molecular target: T1, BT1765 (Bacteroides thetaiotaomicron, UniProt Q8A6W1); assay: fructose release; type: biochemical; details: 20 mM Tris-HCl, pH 8.0, 37°C
T1 sequence (Q8A6W1 26-627): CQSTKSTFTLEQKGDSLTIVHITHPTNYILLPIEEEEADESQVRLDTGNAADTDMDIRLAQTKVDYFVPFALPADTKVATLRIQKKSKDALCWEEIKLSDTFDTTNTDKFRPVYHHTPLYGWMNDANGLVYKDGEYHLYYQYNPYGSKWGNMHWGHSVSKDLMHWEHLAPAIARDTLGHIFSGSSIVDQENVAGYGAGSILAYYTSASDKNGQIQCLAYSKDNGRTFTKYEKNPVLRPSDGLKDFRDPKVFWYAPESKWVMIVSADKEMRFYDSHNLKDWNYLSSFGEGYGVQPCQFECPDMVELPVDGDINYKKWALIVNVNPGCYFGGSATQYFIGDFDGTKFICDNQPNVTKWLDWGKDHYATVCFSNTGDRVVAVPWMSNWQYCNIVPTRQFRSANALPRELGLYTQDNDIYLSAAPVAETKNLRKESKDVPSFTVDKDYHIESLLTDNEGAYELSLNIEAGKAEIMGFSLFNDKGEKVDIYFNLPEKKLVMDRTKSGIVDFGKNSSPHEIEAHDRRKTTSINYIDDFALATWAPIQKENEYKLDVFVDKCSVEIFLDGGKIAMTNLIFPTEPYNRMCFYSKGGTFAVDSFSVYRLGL

BT1759 = molecular target: T2, BT1759 (Bacteroides thetaiotaomicron, UniProt Q8A6W7); assay: fructose release; type: biochemical; details: 20 mM Tris-HCl, pH 8.0, 37°C
T2 sequence (Q8A6W7 29-610): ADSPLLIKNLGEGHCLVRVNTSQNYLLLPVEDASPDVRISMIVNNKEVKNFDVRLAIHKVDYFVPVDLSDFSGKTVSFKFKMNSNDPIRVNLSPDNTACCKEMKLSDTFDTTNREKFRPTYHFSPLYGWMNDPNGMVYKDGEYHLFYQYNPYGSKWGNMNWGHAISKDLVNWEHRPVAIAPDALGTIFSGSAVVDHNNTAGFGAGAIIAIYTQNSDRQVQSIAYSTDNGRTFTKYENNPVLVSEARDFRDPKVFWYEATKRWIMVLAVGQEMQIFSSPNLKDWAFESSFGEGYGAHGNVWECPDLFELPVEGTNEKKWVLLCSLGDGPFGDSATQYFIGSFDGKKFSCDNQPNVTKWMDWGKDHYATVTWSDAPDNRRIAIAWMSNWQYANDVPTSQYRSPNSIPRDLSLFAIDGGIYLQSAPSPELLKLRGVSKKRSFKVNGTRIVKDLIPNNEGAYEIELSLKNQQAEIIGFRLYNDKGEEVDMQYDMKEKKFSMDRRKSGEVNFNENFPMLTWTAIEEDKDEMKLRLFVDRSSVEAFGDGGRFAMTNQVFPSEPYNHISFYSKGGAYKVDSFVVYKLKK

BT3082 = molecular target: T3, BT3082 (Bacteroides thetaiotaomicron, UniProt Q8A373); assay: fructose release; type: biochemical; details: 20 mM Tris-HCl, pH 8.0, 37°C
T3 sequence (Q8A373 21-548): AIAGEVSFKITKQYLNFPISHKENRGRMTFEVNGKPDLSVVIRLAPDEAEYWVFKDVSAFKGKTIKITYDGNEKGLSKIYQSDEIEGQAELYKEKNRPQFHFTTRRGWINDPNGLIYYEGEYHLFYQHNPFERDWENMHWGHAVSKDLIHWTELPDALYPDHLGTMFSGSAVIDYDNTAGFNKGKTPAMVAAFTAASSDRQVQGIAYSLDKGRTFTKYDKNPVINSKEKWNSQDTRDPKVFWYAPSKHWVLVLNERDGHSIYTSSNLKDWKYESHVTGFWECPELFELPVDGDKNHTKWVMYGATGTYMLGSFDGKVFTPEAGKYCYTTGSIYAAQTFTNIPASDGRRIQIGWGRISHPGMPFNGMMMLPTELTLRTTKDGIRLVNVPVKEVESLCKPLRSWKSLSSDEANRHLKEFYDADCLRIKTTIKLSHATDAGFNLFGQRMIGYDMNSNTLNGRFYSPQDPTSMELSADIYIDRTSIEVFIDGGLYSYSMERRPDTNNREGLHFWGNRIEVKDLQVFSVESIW

BT1754-PD = molecular target: T4, BT1754-PD (Bacteroides thetaiotaomicron, UniProt Q8A6X1); assay: isothermal titration calorimetry; type: binding; details: 20 mM Tris-HCl, pH 8.0; 1:1 stoichiometry, single site
T4 sequence (Q8A6X1 29-343): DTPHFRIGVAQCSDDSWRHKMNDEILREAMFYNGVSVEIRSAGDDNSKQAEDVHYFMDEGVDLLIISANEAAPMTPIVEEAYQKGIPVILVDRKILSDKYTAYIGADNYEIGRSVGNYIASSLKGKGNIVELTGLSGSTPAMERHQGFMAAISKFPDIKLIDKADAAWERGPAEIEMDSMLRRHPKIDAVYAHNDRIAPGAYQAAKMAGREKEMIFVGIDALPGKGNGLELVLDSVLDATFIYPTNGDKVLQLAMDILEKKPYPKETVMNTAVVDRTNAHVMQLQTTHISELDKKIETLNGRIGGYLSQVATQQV

KM (BT1759) | KM (BT3082) | Kd (BT1754-PD) | Structure (SMILES) | KM (BT1765)
BT1759 and BT3082 also cleave sucrose | BT1759 and BT3082 also cleave sucrose |  | OC[C@H]1O[C@@](CO)(O[C@H]2O[C@H](CO)[C@@H](O)[C@H](O)[C@H]2O)[C@@H](O)[C@@H]1O [sucrose] | BT1765 prefers sucrose over any of the other oligo- or polysaccharides tested
 |  |  | OC[C@H]1O[C@@](CO)(OC[C@H]2OC(O)(CO)[C@@H](O)[C@@H]2O)[C@@H](O)[C@@H]1O (some centres unmarked) [L2, levanbiose] | the enzyme is also able to efficiently degrade levanbiose (Table S2)
 |  | ~2000 nM | OCC1(O)OC[C@@H](O)[C@@H](O)[C@@H]1O (some centres unmarked) [fructose] | 
